US9394233B2, “ROS-activated compounds as selective anti-cancer therapeutics” (University of Cincinnati, priority 2012, dated 2016)
Where two headings read alike, the source gives them in different places.

Assays:
[1] = tested on: HeLa cells; test: HeLa cell viability, MTT assay; assay type: cell-based; conditions: Homo sapiens, 50% reduction in percent of viable HeLa cells, read-out: IC50 against HeLa Cells
Experimental: Table 1 sets forth ROS-Activated compounds of the present invention, together with their IC50 values corresponding to a 50% reduction in the percent of viable HeLa cells in vitro as measured via MTT assay.
All synthesized compounds were purified to greater than 98% purity prior to cell testing. HeLa cell viability assays were performed using an MTT assay.
The general structure of the ROS-activated compounds disclosed herein was probed to determine how positions in the structure alter potency in aqueous media. Compounds were screened against HeLa cells to determine IC50 values. Cell viability was monitored by an MTT dye that forms a purple formazan product in viable cells that are undergoing metabolism. […] Errors reported are between two separate experiments; independent curve-fitting had r greater than 0.95).

[2] = tested on: Drosophila; test: Drosophila survival after microinjection, Ercc1 RNAi knockdown versus control; conditions: 0.5 μL of 10 mM injected
[3] = Oxidation and ROS-dependent hydrolysis of compound 3, monitored by reverse-phase HPLC; assay type: physicochemical
Source text: The oxidative and ROS-activation of the instantly disclosed compounds was investigated. Water, one of the simplest nucleophile substrates, was examined under different oxidative conditions (FIG. 5). A model ROS-activated compound, compound 3, was used to explore the chemical reactivity of these agents (FIG. 5A).
Hydrolysis of compound 3 as a function of time was quantified by separation of the reaction products by reverse-phase HPLC (FIG. 5B). […] To obtain quantifiable data, time points were taken daily over one week.
Addition of the one-electron oxidant, […], led to quantitative hydrolysis of compound 3 with a half-life of 0.4±0.2 hours (FIG. 5B). The oxidation potential of Ir(IV) is 0.7 volts vs. Ag/AgCl making it an appropriate choice for oxidation of hydroquinone derivatives. In additional to oxidation, cells produce reactive oxygen species in the forms of hydroxyl radical and singlet oxygen. Copper and hydrogen peroxide can be used to produce hydroxyl radical. […] The extent of hydrolysis was dependent on the hydrogen peroxide concentration and was slow due to lack of ascorbate (data not shown). Oxidases like horseradish peroxidase reduce molecular oxygen to either hydrogen peroxide or water and at the same time oxidize a substrate with an appropriate potential. The oxidation of compound 3 was difficult to measure via HPLC since after one minute approximately half (53±13%) of compound 3 was hydrolyzed.

[4] = tested on: CCRF-CEM; test: NCI-60 Sulforhodamine B growth inhibition, CCRF-CEM; assay type: cell-based; conditions: Homo sapiens, ALL model line
Experimental: (§1) Compounds 25 and 9 were evaluated for effects on the viability of the cell lines in the NCI-60 cell panel. […] Data is reported as growth inhibition GI50, rather than IC50, to reflect the change in cell counts relative to the starting number of cells.
(§2) Growth inhibition pattern induced by 25 and 9 based on the type of cancer was also analyzed. […] The majority of leukemia and renal cancer cell lines were above the median, indicating enhanced sensitivity to ROS-activating compounds. The current results further substantiate renal carcinoma as a potential target.

[5] = tested on: NCI-60 cell panel; test: NCI-60 cell panel, Sulforhodamine B growth inhibition; assay type: cell-based; conditions: distribution of GI50 over NCI-60 panel
Experimental: as §1

[6] = tested on: renal and CNS cancer cell lines; test: Sulforhodamine B viability assay, renal and CNS cancer cell lines; assay type: cell-based; conditions: panels of renal and CNS cancer cell lines, errors less than 25%
[7] = tested on: human CD34+ blood stem/progenitor cells; test: Cytotoxicity, MTT assay on CD34+ blood stem/progenitor cells; assay type: cell-based; conditions: normal blood stem cells, read-out: IC50 against CD34+ blood stem/progenitor cells
Source text: (§3) To assess the anti-cancer activity against AML, transformed cells were compared to closely related, non-transformed counterparts. In the case of AML, the generally accepted non-transformed cell of origin is the human CD34+ blood stem/progenitor cell. Assessing potency against normal blood stem cells is important since, without selective cytotoxicity, an agent will yield reduced efficacy and therapeutic potential. […] Therefore, a comparison of current agents and the ROS-activated compounds disclosed herein was carried out. (FIG. 3). Cytotoxicity was measured via MTT assay on CD34+ blood stem/progenitor cells (grey lines) and on the MA9.3 AML cell line (black lines), which was derived from the transformation of human CD34+ cells by introduction of the leukemia oncogene MLL-AF9.

[8] = tested on: HL-60; test: NCI-60 Sulforhodamine B growth inhibition, HL-60; assay type: cell-based; conditions: Homo sapiens; HL-60, acute promyelocytic leukemia model
Experimental: as §1, §2

[9] = tested on: MOLT-4; test: NCI-60 Sulforhodamine B growth inhibition, MOLT-4; assay type: cell-based; conditions: Homo sapiens; MOLT-4, ALL model line
Experimental: as §1, §2

[10] = tested on: RPMI-8226; test: NCI-60 Sulforhodamine B growth inhibition, RPMI-8226; assay type: cell-based; conditions: Homo sapiens; RPMI-8226, plasmacytoma and myeloma cell line
Experimental: as §1, §2

[11] = tested on: MA9.3 AML cells; test: AML cytotoxicity, MTT assay on MA9.3 AML cell line; assay type: cell-based, human; conditions: read-out: IC50 against MA9.3 AML cells
Source text: as §3

[12] = tested on: leukemia cell lines; test: NCI-60 Sulforhodamine B growth inhibition, leukemia cell lines; assay type: cell-based; conditions: median in all leukemia cell lines tested
Experimental: as §1, §2

[13] = tested on: 392-nucleotide dsDNA; test: Primer extension assay on 392-nucleotide dsDNA (DNA modification); assay type: biochemical; conditions: dsDNA treated with agent; compound 25 followed by oxidative activation (Na2IrCl6)

IC50 [1] [µM]	SMILES	also measured
30	Oc1ccc(OCCNc2ccccc2)cc1 [Compound 1, 4-(2-(phenylamino)ethoxy)phenol]	
18	CN(CCOc1ccc(O)cc1)c1ccccc1 [Compound 2, 4-(2-(methyl(phenyl)amino)ethoxy)phenol]	
53	CC(C)N(CCOc1ccc(O)cc1)c1ccccc1 [Compound 4, 4-(2-(isopropyl(phenyl)amino)ethoxy)phenol]	
24	COc1ccc(NCCOc2ccc(O)cc2)cc1 [Compound 5, 4-(2-((4-methoxyphenyl)amino)ethoxy)phenol]	
13	COc1ccc(N(C)CCOc2ccc(O)cc2)cc1 [Compound 6, 4-(2-((4-methoxyphenyl)(methyl)amino)ethoxy)phenol]	
31	Oc1ccc(OCCNc2ccc(Br)cc2)cc1 [Compound 7, 4-(2-((4-bromophenyl)amino)ethoxy)phenol]	
30	CN(CCOc1ccc(O)cc1)Cc1ccccc1 [Compound 8, 4-(2-(benzyl(methyl)amino)ethoxy)phenol]	
7	CN(CCCOc1ccc(O)cc1)c1ccccc1 [Compound 9, 4-(3-(methyl(phenyl)amino)propoxy)phenol]	GI50 [4]: 0.263 µM; range of GI50 values [5]: 53 fold; IC50 [6]: micromolar range; IC50 ([7]; Homo sapiens): 5.4 ± 0.9 µM; GI50 [8]: 0.9 µM; GI50 [9]: 2 µM; GI50 [10]: 1.2 µM; IC50 ([11]; Homo sapiens): 0.7 ± 0.2 µM; GI50 [12]: 1.9 µM
16	CCN(CCCOc1ccc(O)cc1)c1ccccc1 [Compound 10, 4-(3-(ethyl(phenyl)amino)propoxy)phenol]	
9	CN(CCCCCOc1ccc(O)cc1)c1ccccc1 [Compound 13, 4-(5-(methyl(phenyl)amino)pentyloxy)phenol]	
46	CCN(CCSc1ccc(O)cc1)c1ccccc1 [Compound 15, 4-((2-(ethyl(phenyl)amino)ethyl)thio)phenol]	
44	CN(CCCSc1ccc(O)cc1)c1ccccc1 [Compound 16, 4-((3-(methyl(phenyl)amino)propyl)thio)phenol]	
108	CCN(CC(=O)Nc1ccc(O)cc1)c1ccccc1 [Compound 17, 2-(ethyl(phenyl)amino)-N-(4-hydroxyphenyl)acetamide]	
44	CCN(CCOc1cccc(O)c1)c1ccccc1 [Compound 18, 3-(2-(ethyl(phenyl)amino)ethoxy)phenol]	
77	CCN(CCOc1ccccc1O)c1ccccc1 [Compound 19, 2-(2-(ethyl(phenyl)amino)ethoxy)phenol]	
> 125	CCN(CCOc1ccc(N)cc1)c1ccccc1 [Compound 20, N-(2-(4-aminophenoxy)ethyl)-N-ethylaniline]	
45	CCN(CCOc1ccc(NC(C)=O)cc1)c1ccccc1 [Compound 21, N-(4-(2-(ethyl(phenyl)amino)ethoxy)phenyl)acetamide]	
> 125	CCN(CCOc1ccc(N2CCCCC2)cc1)c1ccccc1 [Compound 22, N-ethyl-N-(2-(4-(piperidin-1-yl)phenoxy)ethyl)aniline]	
> 125	CCN(CCOc1ccc(OC)cc1)c1ccccc1 [Compound 24, N-ethyl-N-(2-(4-methoxyphenoxy)ethyl)aniline]	
15	COc1ccc(N(CCOc2ccc(O)cc2)CCOc2ccc(O)cc2)cc1 [Compound 26, 4,4′-((((4-methoxyphenyl)azanediyl)bis(ethane-2,1-diyl))bis(oxy))diphenol]	
77	COC(=O)CCCc1ccc(N(CCOc2ccc(O)cc2)CCOc2ccc(O)cc2)cc1 [Compound 27, methyl 4-(4-(bis(2-(4-hydroxyphenoxy)ethyl)amino)phenyl)butanoate]	
67	O=C(O)CCCc1ccc(N(CCOc2ccc(O)cc2)CCOc2ccc(O)cc2)cc1 [Compound 28, 4-(4-(bis(2-(4-hydroxyphenoxy)ethyl)amino)phenyl)butanoic acid]	
12	CC(=O)Oc1ccc(OCCN(CCOc2ccc(OC(C)=O)cc2)c2ccccc2)cc1 [Compound 29, (((phenylazanediyl)bis(ethane-2,1-diyl))bis(oxy))bis(4,1-phenylene) diacetate]	
161	Oc1ccc(O)cc1 [Hydroquinone, reference compound]	
	Nc1ccn([C@@H]2O[C@H](CO)[C@@H](O)[C@@H]2O)c(=O)n1 [ara-C, cytosine arabinoside]	IC50 [7]: 0.59 ± 0.09 µM; IC50 [11]: 0.92 ± 0.03 µM
	O=C(O)CCCc1ccc(N(CCCl)CCCl)cc1 [chlorambucil]	IC50 ([7]; Homo sapiens): 11 ± 1 µM; IC50 ([11]; Homo sapiens): 8.7 ± 0.3 µM
	N.N.[Cl][Pt][Cl] [cisplatin]	IC50 [7]: 15 ± 2 µM; full-length extension product yield [13]: no full-length extension product; IC50 [11]: 14 ± 0.7 µM
	COc1cccc2c1C(=O)c1c(O)c3c(c(O)c1C2=O)C[C@@](O)(C(=O)CO)C[C@@H]3O[C@H]1C[C@H](N)[C@H](O)[C@H](C)O1 [doxorubicin]	IC50 ([7]; Homo sapiens): 0.076 ± 0.018 µM; IC50 ([11]; Homo sapiens): 0.086 ± 0.05 µM

SMILES	IC50 [1] [µM]	also measured
CCN(CCOc1ccc(O)cc1)c1ccccc1 [Compound 3, 4-(2-(ethyl(phenyl)amino)ethoxy)phenol]	23	death on Day 1 ([2]; Drosophila lacking Ercc1 expression (da-GAL4/UAS-Ercc1RNAi)): 60%; death on Day 1 ([2]; control flies with wild-type Ercc1 expression (da-GAL4/+)): 10%; half-life ([3]; one-electron oxidant Na2Ir2Cl6 added, addition of one-electron oxidant Na2Ir2Cl6): 0.4 ± 0.2 h; half-life ([3]; oxidation by copper chloride-hydrogen peroxide (hydroxyl radical)): 12.1 h; half-life ([3]; phosphate buffer, no oxidant, assuming first order kinetics): 693 ± 42 h
CN(CCCCOc1ccc(O)cc1)c1ccccc1 [Compound 11, 4-(4-(methyl(phenyl)amino)butoxy)phenol]	8	
CCN(CCCCOc1ccc(O)cc1)c1ccccc1 [Compound 12, 4-(4-(ethyl(phenyl)amino)butoxy)phenol]	14	
O=C1C=CC(=O)C=C1 [benzoquinone, reference compound]	227	
